Results reported in ChEMBL document CHEMBL5042556, “Lead Optimization to Advance Protease-Activated Receptor-1 Antagonists in Early Discovery” (J Med Chem, 2022).

Tests used:
[1] = target: T1, Proteinase-activated receptor 1 (Homo sapiens, UniProt P25116); experiment: Antagonist activity at human PAR-1 expressed in HEK293 cells assessed as reduction in TRAP induced calcium signal at 3 uM by FLIPR analysis; assay type: functional, cell-based
T1 sequence (P25116 whole entry): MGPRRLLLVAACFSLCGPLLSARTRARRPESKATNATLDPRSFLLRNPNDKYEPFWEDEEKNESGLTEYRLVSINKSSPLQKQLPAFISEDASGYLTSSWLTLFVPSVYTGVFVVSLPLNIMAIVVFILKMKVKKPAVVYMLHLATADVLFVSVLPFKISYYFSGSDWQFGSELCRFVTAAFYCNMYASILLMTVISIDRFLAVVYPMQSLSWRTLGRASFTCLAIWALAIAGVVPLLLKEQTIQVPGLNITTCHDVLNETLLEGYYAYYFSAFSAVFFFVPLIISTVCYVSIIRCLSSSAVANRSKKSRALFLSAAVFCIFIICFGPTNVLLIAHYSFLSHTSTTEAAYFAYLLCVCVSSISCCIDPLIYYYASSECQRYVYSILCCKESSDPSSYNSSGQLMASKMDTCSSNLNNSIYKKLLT

[2] = target: P-glycoprotein (ABCB1) (Homo sapiens, UniProt P08183); experiment: Effect on human P-glycoprotein expressed in MDCK cells assessed as efflux ratio of apparent permeability across basolateral to apical side over apical to basolateral side (reference value: 0.6 to 0.8); assay type: ADME, cell-based, MDCKII-LE; details: MDCK-MDR1
P-glycoprotein (ABCB1), sequence (P08183 whole entry): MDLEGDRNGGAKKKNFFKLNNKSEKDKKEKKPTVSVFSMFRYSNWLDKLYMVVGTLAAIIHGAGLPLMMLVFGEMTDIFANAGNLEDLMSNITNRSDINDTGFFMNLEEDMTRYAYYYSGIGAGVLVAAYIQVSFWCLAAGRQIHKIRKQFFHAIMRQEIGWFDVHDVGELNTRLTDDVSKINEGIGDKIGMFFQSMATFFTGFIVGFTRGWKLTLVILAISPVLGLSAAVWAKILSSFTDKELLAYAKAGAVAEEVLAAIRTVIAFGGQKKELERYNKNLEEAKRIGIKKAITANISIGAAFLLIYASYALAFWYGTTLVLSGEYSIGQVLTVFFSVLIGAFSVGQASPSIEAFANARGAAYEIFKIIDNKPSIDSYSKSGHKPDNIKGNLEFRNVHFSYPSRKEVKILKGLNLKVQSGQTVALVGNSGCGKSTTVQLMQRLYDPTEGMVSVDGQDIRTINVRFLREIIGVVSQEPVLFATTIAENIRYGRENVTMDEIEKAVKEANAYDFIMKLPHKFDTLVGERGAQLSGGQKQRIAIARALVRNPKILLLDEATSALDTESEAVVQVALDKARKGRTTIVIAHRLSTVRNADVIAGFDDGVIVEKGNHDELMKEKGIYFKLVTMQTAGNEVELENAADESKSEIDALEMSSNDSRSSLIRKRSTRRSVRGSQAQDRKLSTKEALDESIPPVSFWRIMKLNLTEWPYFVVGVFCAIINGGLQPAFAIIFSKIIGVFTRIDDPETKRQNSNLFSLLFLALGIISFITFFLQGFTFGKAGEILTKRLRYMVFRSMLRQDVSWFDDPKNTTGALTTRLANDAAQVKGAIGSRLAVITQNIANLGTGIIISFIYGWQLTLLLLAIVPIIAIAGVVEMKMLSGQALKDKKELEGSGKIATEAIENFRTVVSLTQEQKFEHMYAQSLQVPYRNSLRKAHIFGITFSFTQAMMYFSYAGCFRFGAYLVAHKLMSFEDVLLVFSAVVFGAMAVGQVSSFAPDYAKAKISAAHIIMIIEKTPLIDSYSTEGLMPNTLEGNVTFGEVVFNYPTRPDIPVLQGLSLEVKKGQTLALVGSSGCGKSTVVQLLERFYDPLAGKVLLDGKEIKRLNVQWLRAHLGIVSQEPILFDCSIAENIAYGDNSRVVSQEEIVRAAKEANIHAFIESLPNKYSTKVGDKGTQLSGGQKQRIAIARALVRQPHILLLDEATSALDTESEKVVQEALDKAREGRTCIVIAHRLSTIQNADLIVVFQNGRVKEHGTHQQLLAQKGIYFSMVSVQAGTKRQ

[3] = target: T2, Voltage-gated inwardly rectifying potassium channel KCNH2 (Homo sapiens, UniProt Q12809); experiment: Inhibition of [35S]MK-499 binding to hERG expressed in HEK293 cells; assay type: toxicity, cell-based
T2 sequence (Q12809 whole entry): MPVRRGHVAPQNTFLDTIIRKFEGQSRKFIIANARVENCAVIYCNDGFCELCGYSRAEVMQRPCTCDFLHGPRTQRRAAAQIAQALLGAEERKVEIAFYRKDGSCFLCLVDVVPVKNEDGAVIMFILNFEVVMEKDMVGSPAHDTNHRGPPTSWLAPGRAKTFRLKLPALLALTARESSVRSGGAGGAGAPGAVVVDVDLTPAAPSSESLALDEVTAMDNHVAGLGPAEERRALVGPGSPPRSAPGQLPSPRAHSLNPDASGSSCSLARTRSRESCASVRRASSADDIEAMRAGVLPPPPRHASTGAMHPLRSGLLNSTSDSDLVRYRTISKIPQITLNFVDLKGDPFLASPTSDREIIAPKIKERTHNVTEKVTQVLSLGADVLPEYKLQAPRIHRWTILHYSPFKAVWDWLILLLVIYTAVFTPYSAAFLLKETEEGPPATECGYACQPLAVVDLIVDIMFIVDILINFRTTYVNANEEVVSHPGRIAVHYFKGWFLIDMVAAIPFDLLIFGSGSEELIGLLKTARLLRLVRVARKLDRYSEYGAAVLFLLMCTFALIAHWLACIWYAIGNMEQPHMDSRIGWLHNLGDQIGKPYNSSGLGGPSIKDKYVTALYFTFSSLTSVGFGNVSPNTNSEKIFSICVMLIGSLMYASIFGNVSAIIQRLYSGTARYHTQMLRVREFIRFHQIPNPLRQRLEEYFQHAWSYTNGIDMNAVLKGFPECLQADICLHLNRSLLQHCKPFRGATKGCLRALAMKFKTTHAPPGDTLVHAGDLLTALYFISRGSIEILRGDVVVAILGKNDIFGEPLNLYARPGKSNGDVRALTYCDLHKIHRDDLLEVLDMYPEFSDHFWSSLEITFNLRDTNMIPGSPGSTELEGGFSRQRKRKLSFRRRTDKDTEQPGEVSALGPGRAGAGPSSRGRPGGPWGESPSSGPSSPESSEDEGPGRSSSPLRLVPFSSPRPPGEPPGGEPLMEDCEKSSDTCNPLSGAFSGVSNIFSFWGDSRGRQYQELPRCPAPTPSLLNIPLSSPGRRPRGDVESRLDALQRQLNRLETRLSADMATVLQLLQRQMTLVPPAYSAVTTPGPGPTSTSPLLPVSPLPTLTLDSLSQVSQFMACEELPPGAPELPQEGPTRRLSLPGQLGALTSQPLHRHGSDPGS

[4] = Apparent permeability in MDCKII-LE cells; assay type: ADME, cell-based, Canis lupus familiaris; details: dog, MDCK
[5] = Ex vivo inhibition of PAR-1 in cynomolgus monkey whole blood assessed as inhibition of TRAP-induced platelet aggregation at 1 mg/kg, po measured after 24 hrs; assay type: functional; details: Macaca fascicularis
[6] = Ex vivo inhibition of PAR-1 in cynomolgus monkey whole blood assessed as inhibition of TRAP-induced platelet aggregation at 0.3 mg/kg, po measured after 24 hrs; assay type: functional; details: Macaca fascicularis
[7] = target: T2, Voltage-gated inwardly rectifying potassium channel KCNH2; experiment: Inhibition of [35S]MK-499 binding to hERG expressed in HEK293 cells at 60 uM; assay type: toxicity, cell-based
[8] = Plasma protein binding in dog assessed as unbound fraction; assay type: ADME, cell-free, Canis lupus familiaris
[9] = test system: P-glycoprotein; experiment: Effect on rat P-glycoprotein expressed in MDCK cells assessed as efflux ratio of apparent permeability across basolateral to apical side over apical to basolateral side (reference value: 0.6 to 0.8); assay type: ADME, cell-based, MDCKII-LE; details: MDCK-MDR1
[10] = Clearance in rat hepatocyte measured per 10^6 cells; assay type: ADME, cell-based; details: hepatocytes
[11] = Clearance in dog hepatocyte measured per 10^6 cells; assay type: ADME, cell-based, Canis lupus familiaris; details: hepatocytes
[12] = Clearance in mouse hepatocyte measured per 10^6 cells; assay type: ADME, cell-based; details: hepatocytes
[13] = Clearance in human hepatocyte measured per 10^6 cells; assay type: ADME, cell-based; details: hepatocytes
[14] = Clearance in rat at 3 mg/kg, iv; assay type: ADME, organism-based; details: in vivo
[15] = Clearance in intravenously dosed dog; assay type: ADME, organism-based, Canis lupus familiaris; details: in vivo, iv
[16] = Clearance in intravenously dosed cynomolgus monkey; assay type: ADME, organism-based, Macaca fascicularis; details: in vivo, iv
[17] = Unbound clearance in rat at 3 mg/kg, iv; assay type: ADME, organism-based; details: in vivo
[18] = Unbound clearance in intravenously dosed dog; assay type: ADME, organism-based, Canis lupus familiaris; details: in vivo, iv
[19] = Unbound clearance in intravenously dosed cynomolgus monkey; assay type: ADME, organism-based, Macaca fascicularis; details: in vivo, iv
[20] = Volume of distribution in rat at 0.3 mg/kg, iv; assay type: ADME, organism-based; details: in vivo
[21] = Volume of distribution in intravenously dosed cynomolgus monkey; assay type: ADME, organism-based, Macaca fascicularis; details: in vivo, iv
[22] = Unbound volume of distribution in rat at 3 mg/kg, iv; assay type: ADME, organism-based; details: in vivo
[23] = Unbound volume of distribution in intravenously dosed dog; assay type: ADME, organism-based, Canis lupus familiaris; details: in vivo, iv
[24] = Unbound volume of distribution in intravenously dosed cynomolgus monkey; assay type: ADME, organism-based, Macaca fascicularis; details: in vivo, iv
[25] = Plasma protein binding in rat assessed as unbound fraction; assay type: ADME, cell-free
[26] = Plasma protein binding in cynomolgus monkey assessed as unbound fraction; assay type: ADME, cell-free, Macaca fascicularis
[27] = MRT in rat at 3 mg/kg, iv; assay type: ADME, organism-based; details: in vivo
[28] = MRT in intravenously dosed dog; assay type: ADME, organism-based, Canis lupus familiaris; details: in vivo, iv
[29] = MRT in intravenously dosed cynomolgus monkey; assay type: ADME, organism-based, Macaca fascicularis; details: in vivo, iv
[30] = Oral bioavailability in rat; assay type: ADME, organism-based; details: in vivo
[31] = Oral bioavailability in dog; assay type: ADME, organism-based, Canis lupus familiaris; details: in vivo
[32] = Oral bioavailability in cynomolgus monkey; assay type: ADME, organism-based, Macaca fascicularis; details: in vivo
[33] = MRT in rat at 1 mg/kg, iv; assay type: ADME, organism-based; details: in vivo
[34] = MRT in cynomolgus monkey at 0.3 mg/kg, iv; assay type: ADME, organism-based, Macaca fascicularis; details: in vivo

SMILES	IC50 [1] [µM]	efflux ratio [2]	IC50 [3] [µM]	Papp [4] [×10⁻⁶ cm/s]	inhibition in vivo at 1 mg/kg [5] [%]	inhibition in vivo at 0.3 mg/kg [6] [%]	IC50 [7] [µM]	fraction unbound [8]	efflux ratio [9]	CLint [10] [µL/min/1e6 cells]	CLint [11] [µL/min/1e6 cells]	CLint [12] [µL/min/1e6 cells]	CLint [13] [µL/min/1e6 cells]	clearance [14] [mL/min/kg]	clearance [15] [mL/min/kg]	clearance [16] [mL/min/kg]	CL free [17] [mL/min/kg]	CL free [18] [mL/min/kg]	CL free [19] [mL/min/kg]	Vd [20] [L/kg]	also measured
C[C@H]1[C@H](c2ccc(-c3cccc(F)c3)cn2)[C@@H]2[C@@H](C)OC(=O)[C@@H]2C[C@@H]1C	0.003																				
C[C@H]1OC(=O)[C@@H]2CC(F)(F)[C@@H](C)[C@H](c3ccc(-c4cccc(F)c4)cn3)[C@H]12	0.005																				
CCNC(=O)N1C[C@H]2[C@H](C)[C@@H](C)[C@H](/C=C/c3ccc(-c4ccccc4C#N)cn3)[C@@H]3[C@@H](C)OC(=O)[C@@]32C1	0.007	> 65	9.2	32.3	100	100	9	0.05	> 71	17.2	11.8	19.7	7.3	46	5.6	7.7	742	112	140	1.2	Vd [21]: 0.81 L/kg; Vdu [22]: 19 L/kg; Vdu [23]: 42 L/kg; Vdu [24]: 15 L/kg; fraction unbound [25]: 0.06; fraction unbound [26]: 0.06; MRT [27]: 0.44 h; MRT [28]: 6.2 h; MRT [29]: 1.8 h; bioavailability [30]: 10%; bioavailability [31]: 19%; bioavailability [32]: 13%
Cc1cccc(-c2ccc(/C=C/[C@@H]3[C@@H]4[C@@H](C)OC(=O)[C@]4(O)CC(F)(F)[C@H]3C)nc2)c1C#N	0.003	1.5	9	41.9	100	100	9	0.02	3.3	2.3	41.7	11.4	4.3	37	26	8.6	1370	1238	344	3.1	MRT [33]: 2.2 h; MRT [34]: 3.2 h; Vd [21]: 1.5 L/kg; Vdu [22]: 115 L/kg; Vdu [23]: 171 L/kg; Vdu [24]: 60 L/kg; fraction unbound [25]: 0.03; fraction unbound [26]: 0.02; MRT [27]: 1.4 h; MRT [28]: 2.3 h; MRT [29]: 3 h; bioavailability [30]: 44%; bioavailability [31]: 5%; bioavailability [32]: 57%
